Laboratory results reported in ChEMBL document CHEMBL1201862, “PubChem BioAssay data set” (2004).
Activity calls are given as the source filed them.

Tests used:
Trypsin = Trypsin (Sus scrofa, UniProt P00761); assay: porcine trypsin inhibitors, dose response, selectivity assay for Rce1 protease inhibitor project, biochemical, quenched peptide fluorescence, cherry-pick (AID 488789)
[1] = biological target: T1, Ubiquitin-conjugating enzyme E2 N (Homo sapiens, UniProt P61088); type: functional;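 note: Dose-response confirmation in a TR-FRET assay detecting UBC13-driven polyubiquitin chain formation, inhibition measured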
T1 sequence (P61088 whole entry): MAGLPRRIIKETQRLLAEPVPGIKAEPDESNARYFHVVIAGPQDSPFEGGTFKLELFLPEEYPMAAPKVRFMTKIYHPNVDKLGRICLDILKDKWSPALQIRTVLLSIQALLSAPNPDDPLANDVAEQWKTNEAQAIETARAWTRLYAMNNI

[2] = biological target: Neurotensin receptor type 1 (Homo sapiens, UniProt P30989); type: functional;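 note: Image-based confirmatory dose-response assay measuring agonist activity at NTR1; NTR1-expressing U2OS osteosarcoma cells imaged for beta-arrestin GFP spot formation; agonist potency where compounds increase beta-arrestin recruitment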
CAAX prenyl protease 1 = CAAX prenyl protease 1 (Saccharomyces cerevisiae S288c, UniProt P47154); assay: Ste24 protease inhibitors, dose response, biochemical, S. cerevisiae, plate reader, cherry-pick (AID 488815)
[3] = inhibitors of firefly luciferase expression or activity, dose response, H4 neuroglioma cells, luminescence (AID 1990); type: functional, cell-based
[4] = Luminescence Cell-Based Dose Response HTS to Identify Inhibitors of 5'UTR Stem-Loop Driven Prion Protein mRNA Translation in H4 Neuroglioblastoma Cells. [Related pubchem assays: 1827 (Project Summary), 1813 (Primary HTS)]; type: functional
[5] = inhibitors of SNCA 5'UTR-driven reporter translation, confirmation, H4 neuroglioma cells, luminescence (AID 1988); type: functional, cell-based
Paired box protein Pax-8 = Paired box protein Pax-8 (Homo sapiens, UniProt Q06710); assay: inhibitors of PAX8-driven TPO luciferase reporter, dose response, RMG-I cells, cherry-pick (AID 687027); type: functional, cell-based;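 note: luciferase reporter driven by Pax8 target thyroperoxidase promoter measured by SteadyGlo luminescence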
[6] = biological target: Serine/threonine-protein phosphatase PP1-alpha catalytic subunit (Homo sapiens, UniProt P62136); assay: PP1 phosphatase inhibitors, dose response, biochemical, fluorescence (AID 2394)
[7] = system: Streptococcus sp. 'group A'; assay: growth inhibition of control SK(-) GAS strain, dose response, counter-screen for streptokinase expression inhibitor project, luminescence, kanamycin, BacTiterGlo, confirmation (AID 1900); type: functional, organism-based
[8] = biological target: Serine/threonine-protein phosphatase (Homo sapiens, UniProt Q9BPW0); assay: PP5 phosphatase inhibitors, dose response, biochemical, fluorescence (AID 2395)
[9] = biological target: Heat shock protein HSP 90-alpha (Homo sapiens, UniProt P07900); assay: Luminescence-based dose response biochemical high throughput screening assay for inhibitors of the Heat Shock Protein 90 (HSP90). [Related pubchem assays: 1831 (Summary AID.), 1846 (Confirmation screen.), 1789 (Primary screen.)]
[10] = biological target: T2, Histone-lysine N-methyltransferase NSD2 (Homo sapiens, UniProt O96028); type: biochemical
T2 sequence (O96028 whole entry): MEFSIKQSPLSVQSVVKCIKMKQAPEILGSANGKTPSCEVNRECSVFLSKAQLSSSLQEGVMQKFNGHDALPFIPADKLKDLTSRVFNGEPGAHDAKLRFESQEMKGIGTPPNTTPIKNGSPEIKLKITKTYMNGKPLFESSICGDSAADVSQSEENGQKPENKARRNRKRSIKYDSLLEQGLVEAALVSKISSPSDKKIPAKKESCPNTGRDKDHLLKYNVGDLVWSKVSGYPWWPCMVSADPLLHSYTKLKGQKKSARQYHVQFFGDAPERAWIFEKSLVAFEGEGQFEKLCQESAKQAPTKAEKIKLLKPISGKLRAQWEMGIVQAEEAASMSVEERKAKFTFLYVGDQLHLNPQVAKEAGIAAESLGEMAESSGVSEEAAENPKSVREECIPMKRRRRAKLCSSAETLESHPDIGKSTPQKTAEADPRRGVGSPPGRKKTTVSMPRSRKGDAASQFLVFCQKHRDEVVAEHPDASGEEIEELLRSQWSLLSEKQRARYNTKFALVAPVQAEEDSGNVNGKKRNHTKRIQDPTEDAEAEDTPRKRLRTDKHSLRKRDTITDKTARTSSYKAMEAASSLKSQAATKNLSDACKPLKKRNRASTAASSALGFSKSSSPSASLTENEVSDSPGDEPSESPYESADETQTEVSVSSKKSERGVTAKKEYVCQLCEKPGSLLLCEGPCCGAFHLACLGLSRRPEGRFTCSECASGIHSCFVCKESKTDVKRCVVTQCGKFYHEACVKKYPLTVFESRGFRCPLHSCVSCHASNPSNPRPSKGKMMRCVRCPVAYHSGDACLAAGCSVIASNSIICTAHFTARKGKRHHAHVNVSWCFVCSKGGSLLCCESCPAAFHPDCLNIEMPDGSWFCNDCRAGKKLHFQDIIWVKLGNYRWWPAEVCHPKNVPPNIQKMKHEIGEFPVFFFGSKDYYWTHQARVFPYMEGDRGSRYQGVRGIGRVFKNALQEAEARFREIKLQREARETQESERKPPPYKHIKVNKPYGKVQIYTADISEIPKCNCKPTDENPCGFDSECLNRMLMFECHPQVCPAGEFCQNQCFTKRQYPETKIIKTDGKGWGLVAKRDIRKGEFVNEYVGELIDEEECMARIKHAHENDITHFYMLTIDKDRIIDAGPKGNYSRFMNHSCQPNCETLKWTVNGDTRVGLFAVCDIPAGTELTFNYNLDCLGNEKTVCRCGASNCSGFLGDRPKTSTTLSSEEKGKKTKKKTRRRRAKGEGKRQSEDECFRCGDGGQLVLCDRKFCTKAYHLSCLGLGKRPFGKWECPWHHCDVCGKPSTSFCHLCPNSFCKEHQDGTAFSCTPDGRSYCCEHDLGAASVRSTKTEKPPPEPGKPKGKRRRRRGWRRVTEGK

Chain of Serine/threonine-protein phosphatase PP1-alpha catalytic subunit (P62136 whole entry): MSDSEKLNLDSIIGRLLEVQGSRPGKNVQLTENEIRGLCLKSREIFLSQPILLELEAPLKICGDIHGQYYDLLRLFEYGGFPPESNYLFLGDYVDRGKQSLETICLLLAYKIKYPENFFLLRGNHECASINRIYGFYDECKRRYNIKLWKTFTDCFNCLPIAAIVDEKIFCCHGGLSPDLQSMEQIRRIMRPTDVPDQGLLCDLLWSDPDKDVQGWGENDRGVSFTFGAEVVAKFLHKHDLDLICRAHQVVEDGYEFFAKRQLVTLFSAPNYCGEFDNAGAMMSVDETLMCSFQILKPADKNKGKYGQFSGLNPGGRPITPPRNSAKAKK
Chain of Trypsin (P00761 whole entry): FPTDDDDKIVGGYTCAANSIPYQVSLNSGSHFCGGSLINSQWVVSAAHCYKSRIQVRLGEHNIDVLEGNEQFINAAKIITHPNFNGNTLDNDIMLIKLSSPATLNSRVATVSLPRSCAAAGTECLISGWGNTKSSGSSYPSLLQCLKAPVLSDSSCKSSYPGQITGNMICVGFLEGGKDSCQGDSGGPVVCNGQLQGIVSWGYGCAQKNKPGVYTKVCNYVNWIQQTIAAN
Chain of Neurotensin receptor type 1 (P30989 whole entry): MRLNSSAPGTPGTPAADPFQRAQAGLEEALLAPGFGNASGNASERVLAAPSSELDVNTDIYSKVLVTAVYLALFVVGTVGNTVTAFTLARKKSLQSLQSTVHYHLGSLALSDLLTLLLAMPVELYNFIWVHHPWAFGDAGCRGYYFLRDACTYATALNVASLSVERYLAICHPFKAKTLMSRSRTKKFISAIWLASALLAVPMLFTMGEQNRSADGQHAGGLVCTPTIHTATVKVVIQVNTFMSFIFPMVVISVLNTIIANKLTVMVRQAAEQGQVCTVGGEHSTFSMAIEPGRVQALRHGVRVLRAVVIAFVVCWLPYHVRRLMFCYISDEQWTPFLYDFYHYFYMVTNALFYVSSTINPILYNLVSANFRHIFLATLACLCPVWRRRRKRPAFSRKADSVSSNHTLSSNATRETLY
Chain of Serine/threonine-protein phosphatase (Q9BPW0 whole entry): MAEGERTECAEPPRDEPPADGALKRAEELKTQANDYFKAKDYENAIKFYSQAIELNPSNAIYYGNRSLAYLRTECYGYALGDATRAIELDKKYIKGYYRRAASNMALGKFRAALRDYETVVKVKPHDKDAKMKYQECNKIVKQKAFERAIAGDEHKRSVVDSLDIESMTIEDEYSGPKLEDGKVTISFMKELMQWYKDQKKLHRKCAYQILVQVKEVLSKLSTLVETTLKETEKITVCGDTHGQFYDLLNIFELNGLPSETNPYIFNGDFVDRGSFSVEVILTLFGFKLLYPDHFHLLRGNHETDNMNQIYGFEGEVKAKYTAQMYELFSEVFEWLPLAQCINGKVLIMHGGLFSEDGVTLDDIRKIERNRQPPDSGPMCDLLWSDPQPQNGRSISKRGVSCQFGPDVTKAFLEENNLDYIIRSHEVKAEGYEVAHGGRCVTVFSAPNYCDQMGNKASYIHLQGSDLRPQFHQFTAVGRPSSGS
Chain of CAAX prenyl protease 1 (P47154 whole entry): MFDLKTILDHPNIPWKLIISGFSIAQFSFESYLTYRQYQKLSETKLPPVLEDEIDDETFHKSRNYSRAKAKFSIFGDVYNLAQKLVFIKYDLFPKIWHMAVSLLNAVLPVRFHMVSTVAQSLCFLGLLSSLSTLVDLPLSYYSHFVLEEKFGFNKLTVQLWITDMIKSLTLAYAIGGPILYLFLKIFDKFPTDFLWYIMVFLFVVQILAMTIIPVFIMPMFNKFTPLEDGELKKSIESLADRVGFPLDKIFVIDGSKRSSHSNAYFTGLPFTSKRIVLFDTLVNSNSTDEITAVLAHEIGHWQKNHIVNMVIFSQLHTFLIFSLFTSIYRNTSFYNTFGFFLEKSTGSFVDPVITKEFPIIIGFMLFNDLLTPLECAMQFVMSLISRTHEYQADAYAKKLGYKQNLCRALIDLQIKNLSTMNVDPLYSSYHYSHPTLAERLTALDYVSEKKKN
Chain of Paired box protein Pax-8 (Q06710 whole entry): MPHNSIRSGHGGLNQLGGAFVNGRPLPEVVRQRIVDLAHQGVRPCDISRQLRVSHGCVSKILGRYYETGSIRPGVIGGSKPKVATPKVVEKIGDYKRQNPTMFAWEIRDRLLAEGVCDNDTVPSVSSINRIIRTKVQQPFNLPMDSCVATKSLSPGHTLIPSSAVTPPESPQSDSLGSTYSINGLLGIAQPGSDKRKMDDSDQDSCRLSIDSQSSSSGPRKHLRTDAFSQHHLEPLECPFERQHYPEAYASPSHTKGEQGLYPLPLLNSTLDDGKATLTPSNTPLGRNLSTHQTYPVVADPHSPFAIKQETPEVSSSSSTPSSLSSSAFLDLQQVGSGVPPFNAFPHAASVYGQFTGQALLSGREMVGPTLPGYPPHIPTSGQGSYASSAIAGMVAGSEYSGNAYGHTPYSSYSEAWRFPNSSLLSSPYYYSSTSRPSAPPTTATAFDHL

SMILES: CCCCCCCCCCOC(=O)Cn1c(COc2cccc(OC)c2)[n+](C)c2ccccc21
- AC50 (Trypsin): 5.16 µM (active)
- IC50 [1]: > 20 µM (inactive)
- EC50 [2]: 14.3 µM (active)
- AC50 (CAAX prenyl protease 1): 2.11 µM (active)

SMILES: COc1cc(OC)c(NC2=CC(=O)C(=O)c3ccccc32)cc1Cl
- EC50 [3]: 0.412 µM (active)
- EC50 [4]: 3.7 µM (active)
- EC50 [5]: 0.197 µM (active)
- AC50 (Paired box protein Pax-8): 3.4 µM (active)

SMILES: CCc1ccc(S(=O)(=O)/N=C2\C=C(Nc3cccc(C(=O)O)c3)C(=O)c3ccccc32)cc1
- IC50 [6]: 22.7 µM (not active)
- EC50 [7]: 1.26 µM (active)
- IC50 [8]: 6.85 µM (active)
- IC50 [9]: 0.926 µM (active)
- AC50 [10]: 0.263 µM (active)
